Measured values from US11208421B2, “2-carboxypenam compound or salt thereof, pharmaceutical composition containing novel 2-carboxypenam compound or salt thereof, and applications thereof” (priority 2017, dated 2021).
Converted amounts (≈) assume the structure as drawn.

How the values were obtained:
Type in all cases: cell-based
[1] = system: Pseudomonas aeruginosa strain ATCC 27853; assay: Antibacterial activity evaluation test (MIC), broth microdilution, strain ATCC 27853; details: for MIC Pseudomonas aeruginosa strain ATCC 27853: cation-adjusted Mueller-Hinton medium supplemented with 20 M of apotransferrin, 35° C., 16 to 20 hours; for MIC: Pseudomonas aeruginosa, ATCC27853, read-out: MIC Pseudomonas aeruginosa strain ATCC 27853
Protocol: (§1) The minimum inhibitory concentration (MIC) was measured according to the Clinical and Laboratory Standards Institute (CLSI) standard method by using the following broth microdilution method.
(§2) As bacteria, a Pseudomonas aeruginosa strain ATCC 27853, a Pseudomonas aeruginosa AmpC derepression mutant strain S-3028, and a Pseudomonas aeruginosa IMP-1-producing strain S-2838 were used.
(§3) The Pseudomonas aeruginosa AmpC-derepression mutant strain S-3028 or the Pseudomonas aeruginosa IMP-1-producing strain S-2838 was cultured on a Mueller Hinton agar medium overnight, thereby preparing test bacterial cells. The obtained test bacterial cells were scraped off, suspended to yield 0.5 McFarland equivalence, and diluted 10-fold to obtain an inoculum. A cation-adjusted Mueller Hinton medium containing a test compound was inoculated with 0.0005 mL of the inoculum, and the cells were cultured at 35° C. for 16 to 20 hours. The minimum drug concentration at which the growth of bacteria was not visually observed was defined as MIC.
The MIC of the Pseudomonas aeruginosa ATCC strain 27853 was measured in the same manner as described above by using a cation-adjusted Mueller-Hinton medium supplemented with […] of apotransferrin as a final concentration.

[2] = system: Pseudomonas aeruginosa AmpC derepression mutant strain S-3028; assay: Antibacterial activity evaluation test (MIC), broth microdilution, AmpC derepression mutant strain S-3028; details: for MIC Pseudomonas aeruginosa strain S-3028: AmpC derepression mutant, cation-adjusted Mueller Hinton medium, 35° C., 16 to 20 hours; for MIC: Pseudomonas aeruginosa, read-out: MIC Pseudomonas aeruginosa strain S-3028
Protocol: as §1, §2, §3

[3] = system: Pseudomonas aeruginosa IMP-1-producing strain S-2838; assay: Antibacterial activity evaluation test (MIC), broth microdilution, IMP-1-producing strain S-2838; details: for MIC Pseudomonas aeruginosa strain S-2838: IMP-1-producing strain, cation-adjusted Mueller Hinton medium, 35° C., 16 to 20 hours; for MIC: Pseudomonas aeruginosa, read-out: MIC Pseudomonas aeruginosa strain S-2838
Protocol: as §1, §2, §3

CC(C)(O/N=C(\C(=O)N[C@@H]1C(=O)N2C[C@](SCCNC(=O)C(=O)c3cc(O)c(O)cc3Cl)(C(=O)O)S[C@H]12)c1csc(N)n1)C(=O)O [Example 23, (3R,5R,6R)-6-((Z)-2-(2-aminothiazol-4-yl)-2-(((2-carboxypropan-2-yl)oxy)imino)acetamide)-3-((2-(2-(2-chloro-4,5-dihydroxyphenyl)-2-oxoacetamide)ethyl)thio)-7-oxo-4-thia-1-azabicyclo[3.2.0]heptane-3-carboxylic acid]
MIC Pseudomonas aeruginosa strain ATCC 27853 [1]: 1 µg/mL (≈ 1.39 µM) | MIC Pseudomonas aeruginosa strain S-3028 [2]: 2 µg/mL (≈ 2.79 µM) | MIC Pseudomonas aeruginosa strain S-2838 [3]: 4 µg/mL (≈ 5.58 µM)

CC(C)(O/N=C(\C(=O)N[C@@H]1C(=O)N2C[C@](SCCNC(=O)/C(=N\NC(N)=O)c3ccc(O)c(O)c3)(C(=O)O)S[C@H]12)c1csc(N)n1)C(=O)O [Example 14, (3R,5R,6R)-6-((Z)-2-(2-aminothiazol-4-yl)-2-(((2-carboxypropane-2-yl)oxy)imino)acetamide)-3-((2-(2-(2-carbamoylhydrazono)-2-(3,4-dihydroxyphenyl)acetamide)ethyl)thio)-7-oxo-4-thia-1-azabicyclo[3.2.0]heptane-3-carboxylic acid]
MIC [1]: 0.25 µg/mL (≈ 0.338 µM) | MIC [2]: 32 µg/mL (≈ 43.3 µM) | MIC [3]: 1 µg/mL (≈ 1.35 µM)

CO[C@@H](CNC(=O)C(=O)c1ccc(O)c(O)c1Cl)CS[C@]1(C(=O)O)CN2C(=O)[C@@H](NC(=O)/C(=N\OC(C)(C)C(=O)O)c3csc(N)n3)C2S1 (stereo partly drawn) [Example 6, (3R,5R,6R)-6-((Z)-2-(2-aminothiazol-4-yl)-2-(((2-carboxypropane-2-yl)oxy)imino)acetamide)-3-(((S)-3-(2-(2-chloro-3,4-dihydroxyphenyl)-2-oxoacetamide)-2-methoxypropyl)thio)-7-oxo-4-thia-1-azabicyclo[3.2.0]heptane-3-carboxylic acid]
MIC [1]: 0.25 µg/mL (≈ 0.328 µM) | MIC [2]: 4 µg/mL (≈ 5.25 µM) | MIC [3]: 2 µg/mL (≈ 2.63 µM)

CC(C)(O/N=C(\C(=O)N[C@@H]1C(=O)N2C[C@](SCCNC(=O)/C(=N/N3CCOCC3)c3ccc(O)c(O)c3Cl)(C(=O)O)S[C@H]12)c1csc(N)n1)C(=O)O [Example 10, (3R,5R,6R)-6-((Z)-2-(2-aminothiazole-4-yl)-2-(((2-carboxypropan-2-yl)oxy)imino)acetamide)-3-((2-((E)-2-(2-chloro-3,4-dihydroxyphenyl)-2-(morpholinoimino)acetamide)ethyl)thio)-7-oxo-4-thia-1-azabicyclo[3.2.0]heptane-3-carboxylic acid]
MIC [1]: 1 µg/mL (≈ 1.25 µM) | MIC [2]: > 128 µg/mL | MIC [3]: 32 µg/mL (≈ 39.9 µM)

CN(CCS[C@]1(C(=O)O)CN2C(=O)[C@@H](NC(=O)/C(=N\OC(C)(C)C(=O)O)c3csc(N)n3)[C@H]2S1)NC(=O)c1ccc(O)c(O)c1Cl [Example 22, (3R,5R,6R)-6-((Z)-2-(2-aminothiazol-4-yl)-2-(((2-carboxypropan-2-yl)oxy)imino)acetamide)-3-((2-(2-(2-chloro-3,4-dihydroxybenzoyl)-1-methylhydrazinyl)ethyl)thio)-7-oxo-4-thia-1-azabicyclo[3.2.0]heptane-3-carboxylic acid]
MIC Pseudomonas aeruginosa strain ATCC 27853 [1]: 0.125 µg/mL (≈ 0.174 µM) | MIC Pseudomonas aeruginosa strain S-3028 [2]: 8 µg/mL (≈ 11.1 µM) | MIC Pseudomonas aeruginosa strain S-2838 [3]: 2 µg/mL (≈ 2.78 µM)

CC(C)(O/N=C(\C(=O)N[C@@H]1C(=O)N2C[C@](SCCNC(=O)C(=O)c3ccc(O)c(O)c3)(C(=O)O)S[C@H]12)c1csc(N)n1)C(=O)O [Example 7, (3R,5R,6R)-6-((Z)-2-(2-aminothiazol-4-yl)-2-(((2-carboxypropane-2-yl)oxy)imino)acetamide)-3-((2-(2-(3,4-dihydroxyphenyl)-2-oxoacetamide)ethyl)thio)-7-oxo-4-thia-1-azabicyclo[3.2.0]heptane-3-carboxylic acid]
MIC Pseudomonas aeruginosa strain ATCC 27853 [1]: 0.125 µg/mL (≈ 0.183 µM) | MIC Pseudomonas aeruginosa strain S-3028 [2]: 16 µg/mL (≈ 23.4 µM) | MIC Pseudomonas aeruginosa strain S-2838 [3]: 4 µg/mL (≈ 5.86 µM)

COC[C@H](CS[C@]1(C(=O)O)CN2C(=O)[C@@H](NC(=O)/C(=N\OC(C)(C)C(=O)O)c3csc(N)n3)C2S1)NC(=O)c1ccc(O)c(O)c1Cl (stereo partly drawn) [Example 19, (3R,5R,6R)-6-((Z)-2-(2-aminothiazol-4-yl)-2-(((2-carboxypropan-2-yl)oxy)imino)acetamide)-3-(((R)-2-(2-chloro-3,4-dihydroxybenzamide)-3-methoxypropyl)thio)-7-oxo-4-thia-1-azabicyclo[3.2.0]heptane-3-carboxylic acid]
MIC [1]: 0.125 µg/mL (≈ 0.17 µM) | MIC [2]: 1 µg/mL (≈ 1.36 µM) | MIC [3]: 1 µg/mL (≈ 1.36 µM)

CO[C@@H](CNC(=O)/C(=N/NC(N)=O)c1ccc(O)c(O)c1Cl)CS[C@]1(C(=O)O)CN2C(=O)[C@@H](NC(=O)/C(=N\OC(C)(C)C(=O)O)c3csc(N)n3)[C@H]2S1 [Example 16, (3R,5R,6R)-6-((Z)-2-(2-aminothiazole-4-yl)-2-(((2-carboxypropan-2-yl)oxy)imino)acetamide)-3-(((S)-3-((E)-2-(2-carbamoylhydrazono)-2-(2-chloro-3,4-dihydroxyphenyl)acetamide)-2-methoxypropyl)thio)-7-oxo-4-thia-1-azabicyclo[3.2.0]heptane-3-carboxylic acid]
MIC [1]: 0.5 µg/mL (≈ 0.611 µM) | MIC [2]: 16 µg/mL (≈ 19.6 µM) | MIC [3]: 8 µg/mL (≈ 9.78 µM)

CN(CCS[C@]1(C(=O)O)CN2C(=O)[C@@H](NC(=O)/C(=N\OC(C)(C)C(=O)O)c3csc(N)n3)[C@H]2S1)C(=O)c1ccc(O)c(O)c1Cl [Example 25, (3R,5R,6R)-6-((Z)-2-(2-aminothiazol-4-yl)-2-(((2-carboxypropan-2-yl)oxy)imino)acetamide)-3-((2-(2-chloro-3,4-dihydroxy-N-methylbenzamide)ethyl)thio)-7-oxo-4-thia-1-azabicyclo[3.2.0]heptane-3-carboxylic acid]
MIC [1]: 1 µg/mL (≈ 1.42 µM) | MIC [2]: 2 µg/mL (≈ 2.84 µM) | MIC [3]: 1 µg/mL (≈ 1.42 µM)

CC(C)(O/N=C(\C(=O)N[C@@H]1C(=O)N2C[C@](SCCNC(=O)C(=O)c3ccc(O)c(O)c3Cl)(C(=O)O)S[C@H]12)c1csc(N)n1)C(=O)O [Example 1, (3R,5R,6R)-6-((Z)-2-(2-aminothiazol-4-yl)-2-(((2-carboxypropan-2-yl)oxy)imino)acetamide)-3-((2-(2-(2-chloro-3,4-dihydroxyphenyl)-2-oxoacetamide)ethyl)thio)-7-oxo-4-thia-1-azabicyclo[3.2.0]heptane-3-carboxylic acid]
MIC Pseudomonas aeruginosa strain ATCC 27853 [1]: 0.125 µg/mL (≈ 0.174 µM) | MIC Pseudomonas aeruginosa strain S-3028 [2]: 128 µg/mL (≈ 178 µM) | MIC Pseudomonas aeruginosa strain S-2838 [3]: 2 µg/mL (≈ 2.79 µM)

COC[C@H](CS[C@]1(C(=O)O)CN2C(=O)[C@@H](NC(=O)/C(=N\OC(C)(C)C(=O)O)c3csc(N)n3)[C@H]2S1)NC(=O)/C(=N\NC(N)=O)c1ccc(O)c(O)c1Cl [Example 17, (3R,5R,6R)-6-((Z)-2-(2-aminothiazol-4-yl)-2-(((2-carboxypropane-2-yl)oxy)imino)acetamide)-3-(((R)-2-(2-(2-carbamoylhydrazono)-2-(2-chloro-3,4-dihydroxyphenyl)acetamide)-3-methoxypropyl)thio)-7-oxo-4-thia-1-azabicyclo[3.2.0]heptane-3-carboxylic acid]
MIC [1]: ≤ 0.0625 µg/mL | MIC [2]: 8 µg/mL (≈ 9.78 µM) | MIC [3]: 8 µg/mL (≈ 9.78 µM)
